Assay results from US20210000844A1, “OPHTHALMIC COMPOSITION COMPRISING DIQUAFOSOL AND CATIONIC POLYMER” (Santen Pharmaceutical Co., Ltd., priority 2018, published 2021).

Test system: Cultured peripheral nerve cells (dorsal neuro ganglion neuron)
Assay: Test 4: stimulatory property of diquafosol sodium to peripheral nerves (intracellular calcium fluorescence)
Type: cell-based
Conditions: stimulation control group (buffer solution instead of formulation solution); diquafosol sodium final concentration 0.3%
Procedure: The stimulatory property of diquafosol sodium to peripheral nerves in the presence of PVP which is a type of […] was examined. “PVP” denotes polyvinylpyrrolidone. “CMC-Na” denotes carboxymethylcellulose sodium. “HPMC” denotes hydroxypropylmethylcellulose. “CVP” denotes a carboxyvinyl polymer.
Cultured peripheral nerve cells (dorsal neuro ganglion neuron; purchased from Lonza Japan Ltd.) were incubated in a buffer solution containing an intracellular calcium indicator fluorescent dye (FLIPR Calcium 6 Assay Kit; Molecular Devices, LLC). 40% of the total amount of the buffer solution was replaced by each of the above-described formulation solutions. A non-stimulation group and a stimulation control group were similarly treated with the buffer solution instead of the formulation solution. The cells were left standing at room temperature, followed by starting fluorescence measurement over time with the calcium indicator dye using a fluorescence plate reader. 60 seconds after the start of the measurement, diquafosol sodium (final concentration: 0.3%) was added, and the measurement of fluorescence intensity was continued.
The maximum fluorescence intensity (RFUmax) after addition of diquafosol sodium was calculated as a relative value against the fluorescence intensity (RFU) immediately before the addition, with the fluorescence intensity (RFU) defined as 100%.

In the case of `O=c1ccn([C@@H]2O[C@H](COP(=O)([O-])OP(=O)([O-])OP(=O)([O-])OP(=O)([O-])OC[C@H]3O[C@@H](n4ccc(=O)[nH]c4=O)[C@H](O)[C@@H]3O)[C@@H](O)[C@H]2O)c(=O)[nH]1.[Na+].[Na+].[Na+].[Na+]` [diquafosol sodium, diquafosol tetrasodium salt], the “maximum fluorescence intensity (RFUmax) after addition of diquafosol sodium” value is reported as at least 103.5%.
